# Activity calls are given as the source filed them.
# Target: Protein kinase C theta type (Homo sapiens, UniProt Q04759)
# Further: in the data inactive means no Kd found up to 30 µM.
# Protein kinase C theta type, sequence (Q04759 whole entry): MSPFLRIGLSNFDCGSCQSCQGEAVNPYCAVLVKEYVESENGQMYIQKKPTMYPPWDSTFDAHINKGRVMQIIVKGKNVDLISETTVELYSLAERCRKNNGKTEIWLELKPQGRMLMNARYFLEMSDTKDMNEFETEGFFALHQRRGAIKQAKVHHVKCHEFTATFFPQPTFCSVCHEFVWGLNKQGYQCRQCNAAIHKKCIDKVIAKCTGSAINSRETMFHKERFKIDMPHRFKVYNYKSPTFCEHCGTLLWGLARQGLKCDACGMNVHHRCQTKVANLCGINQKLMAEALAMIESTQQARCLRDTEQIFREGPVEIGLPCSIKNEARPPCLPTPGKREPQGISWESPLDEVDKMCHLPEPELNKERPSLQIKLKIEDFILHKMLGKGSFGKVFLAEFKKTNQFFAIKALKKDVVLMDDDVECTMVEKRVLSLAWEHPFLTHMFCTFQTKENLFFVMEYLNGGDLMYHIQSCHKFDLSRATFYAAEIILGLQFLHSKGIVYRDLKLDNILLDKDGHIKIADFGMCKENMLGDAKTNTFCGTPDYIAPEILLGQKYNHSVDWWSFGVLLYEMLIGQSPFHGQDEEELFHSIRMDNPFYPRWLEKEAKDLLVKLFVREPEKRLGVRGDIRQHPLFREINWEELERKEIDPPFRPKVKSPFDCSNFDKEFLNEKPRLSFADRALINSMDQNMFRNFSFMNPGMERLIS
row,SMILES,Kd
1,Cn1cc(-c2ccc(F)c(C(F)(F)F)c2)nc1C1CCN(c2ncnc3[nH]ncc23)CC1 [LY-2584702],> 30 µM (inactive)
2,COc1cc(OC)c(/C=C/S(=O)(=O)Cc2ccc(OC)c(NCC(=O)O)c2)c(OC)c1 [RIGOSERTIB],> 30 µM (inactive)
3,CNC(=O)CN1CCC(Oc2cc3c(Nc4cccc(Cl)c4F)ncnc3cc2OC)CC1 [SAPITINIB],> 30 µM (inactive)
4,C[C@@H]1CN(Cc2ccc(F)cc2)[C@@H](C)CN1C(=O)c1cc2c(C(=O)C(=O)N(C)C)cn(C)c2cc1Cl [TALMAPIMOD],> 30 µM (inactive)

# Target: T1, Phosphatidylinositol 5-phosphate 4-kinase type-2 alpha (Homo sapiens, UniProt P48426)
# T1 sequence (P48426 whole entry): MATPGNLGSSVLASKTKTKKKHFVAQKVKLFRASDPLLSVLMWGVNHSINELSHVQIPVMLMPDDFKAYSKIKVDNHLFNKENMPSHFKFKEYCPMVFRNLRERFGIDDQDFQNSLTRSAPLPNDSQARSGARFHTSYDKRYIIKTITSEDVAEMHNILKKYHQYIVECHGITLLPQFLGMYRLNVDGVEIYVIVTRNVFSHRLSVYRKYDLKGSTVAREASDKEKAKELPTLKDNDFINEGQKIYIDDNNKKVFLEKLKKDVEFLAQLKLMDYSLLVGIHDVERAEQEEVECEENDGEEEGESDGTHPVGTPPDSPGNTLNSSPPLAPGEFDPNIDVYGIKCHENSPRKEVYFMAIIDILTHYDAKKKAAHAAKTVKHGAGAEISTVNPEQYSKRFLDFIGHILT
row,SMILES,Kd
1,C[C@@H](Nc1cc(F)cc(F)c1)c1cc(C(=O)N(C)C)cc2c(=O)cc(N3CCOCC3)oc12 [AZD-8186],> 30 µM (inactive)
2,Cc1nc(N)sc1-c1ccnc(Nc2ccc(N3CCOCC3)cc2)n1 [CYC-116],> 30 µM (inactive)
3,Cn1cc(-c2ccc(F)c(C(F)(F)F)c2)nc1C1CCN(c2ncnc3[nH]ncc23)CC1 [LY-2584702],> 30 µM (inactive)
4,COc1cc(OC)c(/C=C/S(=O)(=O)Cc2ccc(OC)c(NCC(=O)O)c2)c(OC)c1 [RIGOSERTIB],> 30 µM (inactive)
5,CNC(=O)CN1CCC(Oc2cc3c(Nc4cccc(Cl)c4F)ncnc3cc2OC)CC1 [SAPITINIB],> 30 µM (inactive)
6,C[C@@H]1CN(Cc2ccc(F)cc2)[C@@H](C)CN1C(=O)c1cc2c(C(=O)C(=O)N(C)C)cn(C)c2cc1Cl [TALMAPIMOD],> 30 µM (inactive)

# Target: Proto-oncogene tyrosine-protein kinase receptor Ret (Homo sapiens, UniProt P07949)
# Sequence (P07949 whole entry): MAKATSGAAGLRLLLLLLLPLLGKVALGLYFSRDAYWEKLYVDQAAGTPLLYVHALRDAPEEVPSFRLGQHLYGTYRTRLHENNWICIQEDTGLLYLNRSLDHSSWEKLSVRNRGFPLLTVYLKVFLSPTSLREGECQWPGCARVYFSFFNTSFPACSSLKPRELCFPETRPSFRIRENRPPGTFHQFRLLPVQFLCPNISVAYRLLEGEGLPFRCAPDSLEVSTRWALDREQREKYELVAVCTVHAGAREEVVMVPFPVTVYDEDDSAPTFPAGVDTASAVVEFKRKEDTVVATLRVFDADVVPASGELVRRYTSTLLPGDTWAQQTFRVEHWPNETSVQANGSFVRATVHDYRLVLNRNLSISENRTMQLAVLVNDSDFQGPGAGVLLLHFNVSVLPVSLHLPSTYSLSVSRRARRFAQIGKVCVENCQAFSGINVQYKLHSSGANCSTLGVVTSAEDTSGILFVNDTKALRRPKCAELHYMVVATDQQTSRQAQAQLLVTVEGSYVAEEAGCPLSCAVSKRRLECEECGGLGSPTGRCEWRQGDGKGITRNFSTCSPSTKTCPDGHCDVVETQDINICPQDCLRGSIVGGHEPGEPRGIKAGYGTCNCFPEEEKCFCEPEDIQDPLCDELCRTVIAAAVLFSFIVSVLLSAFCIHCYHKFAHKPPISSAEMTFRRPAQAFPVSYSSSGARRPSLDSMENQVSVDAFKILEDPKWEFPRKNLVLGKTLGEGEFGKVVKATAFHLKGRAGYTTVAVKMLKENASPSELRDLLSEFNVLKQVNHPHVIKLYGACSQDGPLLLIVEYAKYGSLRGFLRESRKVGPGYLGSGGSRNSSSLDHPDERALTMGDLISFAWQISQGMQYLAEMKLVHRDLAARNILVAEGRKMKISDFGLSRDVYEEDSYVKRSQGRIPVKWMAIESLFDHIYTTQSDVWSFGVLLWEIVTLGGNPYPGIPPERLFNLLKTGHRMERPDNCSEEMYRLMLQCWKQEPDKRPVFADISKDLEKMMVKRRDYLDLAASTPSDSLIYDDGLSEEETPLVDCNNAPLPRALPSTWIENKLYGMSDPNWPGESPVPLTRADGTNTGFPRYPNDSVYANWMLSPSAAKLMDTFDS
row,SMILES,Kd
1,C[C@@H](Nc1cc(F)cc(F)c1)c1cc(C(=O)N(C)C)cc2c(=O)cc(N3CCOCC3)oc12 [AZD-8186],> 30 µM (inactive)
2,Cn1cc(-c2ccc(F)c(C(F)(F)F)c2)nc1C1CCN(c2ncnc3[nH]ncc23)CC1 [LY-2584702],> 30 µM (inactive)
3,COc1cc(OC)c(/C=C/S(=O)(=O)Cc2ccc(OC)c(NCC(=O)O)c2)c(OC)c1 [RIGOSERTIB],> 30 µM (inactive)
4,CNC(=O)CN1CCC(Oc2cc3c(Nc4cccc(Cl)c4F)ncnc3cc2OC)CC1 [SAPITINIB],0.39 µM (active)
5,C[C@@H]1CN(Cc2ccc(F)cc2)[C@@H](C)CN1C(=O)c1cc2c(C(=O)C(=O)N(C)C)cn(C)c2cc1Cl [TALMAPIMOD],> 30 µM (inactive)

# Target: Dual specificity protein kinase CLK2 (Homo sapiens, UniProt P49760)
row,SMILES,Kd
1,COc1cc(OC)c(/C=C/S(=O)(=O)Cc2ccc(OC)c(NCC(=O)O)c2)c(OC)c1 [RIGOSERTIB],> 30 µM (inactive)
2,C[C@@H]1CN(Cc2ccc(F)cc2)[C@@H](C)CN1C(=O)c1cc2c(C(=O)C(=O)N(C)C)cn(C)c2cc1Cl [TALMAPIMOD],> 30 µM (inactive)

# Target: Serine/threonine-protein kinase MRCK gamma (Homo sapiens, UniProt Q6DT37)
# Sequence (Q6DT37 whole entry): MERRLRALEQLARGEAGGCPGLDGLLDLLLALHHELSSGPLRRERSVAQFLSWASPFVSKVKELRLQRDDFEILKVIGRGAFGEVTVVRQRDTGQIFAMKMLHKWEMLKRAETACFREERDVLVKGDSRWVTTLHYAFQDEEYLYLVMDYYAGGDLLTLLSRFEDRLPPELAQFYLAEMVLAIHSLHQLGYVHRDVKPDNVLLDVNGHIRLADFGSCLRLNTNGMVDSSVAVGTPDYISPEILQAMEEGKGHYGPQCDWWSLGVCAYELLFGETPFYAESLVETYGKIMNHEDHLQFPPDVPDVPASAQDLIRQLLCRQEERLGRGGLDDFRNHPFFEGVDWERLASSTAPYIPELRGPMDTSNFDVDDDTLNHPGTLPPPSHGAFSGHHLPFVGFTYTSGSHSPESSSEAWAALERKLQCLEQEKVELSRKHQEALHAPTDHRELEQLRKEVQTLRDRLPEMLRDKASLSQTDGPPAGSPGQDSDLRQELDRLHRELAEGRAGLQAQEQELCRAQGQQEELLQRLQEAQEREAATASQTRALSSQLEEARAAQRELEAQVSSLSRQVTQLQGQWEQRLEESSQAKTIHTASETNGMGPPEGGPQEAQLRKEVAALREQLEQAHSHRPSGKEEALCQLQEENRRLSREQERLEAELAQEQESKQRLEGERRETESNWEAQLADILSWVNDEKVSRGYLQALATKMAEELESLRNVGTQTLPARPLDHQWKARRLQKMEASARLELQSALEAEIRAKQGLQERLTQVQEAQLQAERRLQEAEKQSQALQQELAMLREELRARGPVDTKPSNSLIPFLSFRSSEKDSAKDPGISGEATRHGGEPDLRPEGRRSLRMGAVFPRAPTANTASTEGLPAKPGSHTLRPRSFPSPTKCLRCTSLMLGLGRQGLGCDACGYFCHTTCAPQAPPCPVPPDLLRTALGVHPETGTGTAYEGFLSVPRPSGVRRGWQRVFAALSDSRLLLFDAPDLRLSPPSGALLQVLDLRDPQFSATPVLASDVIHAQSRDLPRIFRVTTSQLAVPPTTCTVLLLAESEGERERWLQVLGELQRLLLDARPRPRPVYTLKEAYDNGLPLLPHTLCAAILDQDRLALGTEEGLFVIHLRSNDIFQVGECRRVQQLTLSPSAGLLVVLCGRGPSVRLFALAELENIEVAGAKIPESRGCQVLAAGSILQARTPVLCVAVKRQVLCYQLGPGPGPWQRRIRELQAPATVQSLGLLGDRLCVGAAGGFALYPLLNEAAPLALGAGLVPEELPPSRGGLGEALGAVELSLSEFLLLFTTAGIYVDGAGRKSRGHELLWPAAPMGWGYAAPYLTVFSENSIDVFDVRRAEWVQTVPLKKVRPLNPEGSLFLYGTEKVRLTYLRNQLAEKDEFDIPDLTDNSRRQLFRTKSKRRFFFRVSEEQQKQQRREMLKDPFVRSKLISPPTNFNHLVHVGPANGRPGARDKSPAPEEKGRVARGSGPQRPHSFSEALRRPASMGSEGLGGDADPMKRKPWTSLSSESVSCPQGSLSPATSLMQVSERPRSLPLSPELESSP
row,SMILES,Kd
1,Cn1cc(-c2ccc(F)c(C(F)(F)F)c2)nc1C1CCN(c2ncnc3[nH]ncc23)CC1 [LY-2584702],> 30 µM (inactive)
2,COc1cc(OC)c(/C=C/S(=O)(=O)Cc2ccc(OC)c(NCC(=O)O)c2)c(OC)c1 [RIGOSERTIB],> 30 µM (inactive)
3,CNC(=O)CN1CCC(Oc2cc3c(Nc4cccc(Cl)c4F)ncnc3cc2OC)CC1 [SAPITINIB],> 30 µM (inactive)
4,C[C@@H]1CN(Cc2ccc(F)cc2)[C@@H](C)CN1C(=O)c1cc2c(C(=O)C(=O)N(C)C)cn(C)c2cc1Cl [TALMAPIMOD],> 30 µM (inactive)

# Target: Phosphatidylethanolamine-binding protein 1 (Homo sapiens, UniProt P30086)
# Sequence (P30086 whole entry): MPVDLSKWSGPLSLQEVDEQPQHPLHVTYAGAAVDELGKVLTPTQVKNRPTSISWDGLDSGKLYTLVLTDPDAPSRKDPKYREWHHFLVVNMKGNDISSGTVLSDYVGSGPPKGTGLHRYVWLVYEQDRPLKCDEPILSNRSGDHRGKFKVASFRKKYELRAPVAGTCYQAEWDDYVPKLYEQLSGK
row,SMILES,Kd
1,Cc1nc(N)sc1-c1ccnc(Nc2ccc(N3CCOCC3)cc2)n1 [CYC-116],> 30 µM (inactive)
2,Cn1cc(-c2ccc(F)c(C(F)(F)F)c2)nc1C1CCN(c2ncnc3[nH]ncc23)CC1 [LY-2584702],> 30 µM (inactive)
3,C[C@@H]1CN(Cc2ccc(F)cc2)[C@@H](C)CN1C(=O)c1cc2c(C(=O)C(=O)N(C)C)cn(C)c2cc1Cl [TALMAPIMOD],> 30 µM (inactive)

# Target: Epidermal growth factor receptor (Homo sapiens, UniProt P00533)
# Sequence (P00533 whole entry): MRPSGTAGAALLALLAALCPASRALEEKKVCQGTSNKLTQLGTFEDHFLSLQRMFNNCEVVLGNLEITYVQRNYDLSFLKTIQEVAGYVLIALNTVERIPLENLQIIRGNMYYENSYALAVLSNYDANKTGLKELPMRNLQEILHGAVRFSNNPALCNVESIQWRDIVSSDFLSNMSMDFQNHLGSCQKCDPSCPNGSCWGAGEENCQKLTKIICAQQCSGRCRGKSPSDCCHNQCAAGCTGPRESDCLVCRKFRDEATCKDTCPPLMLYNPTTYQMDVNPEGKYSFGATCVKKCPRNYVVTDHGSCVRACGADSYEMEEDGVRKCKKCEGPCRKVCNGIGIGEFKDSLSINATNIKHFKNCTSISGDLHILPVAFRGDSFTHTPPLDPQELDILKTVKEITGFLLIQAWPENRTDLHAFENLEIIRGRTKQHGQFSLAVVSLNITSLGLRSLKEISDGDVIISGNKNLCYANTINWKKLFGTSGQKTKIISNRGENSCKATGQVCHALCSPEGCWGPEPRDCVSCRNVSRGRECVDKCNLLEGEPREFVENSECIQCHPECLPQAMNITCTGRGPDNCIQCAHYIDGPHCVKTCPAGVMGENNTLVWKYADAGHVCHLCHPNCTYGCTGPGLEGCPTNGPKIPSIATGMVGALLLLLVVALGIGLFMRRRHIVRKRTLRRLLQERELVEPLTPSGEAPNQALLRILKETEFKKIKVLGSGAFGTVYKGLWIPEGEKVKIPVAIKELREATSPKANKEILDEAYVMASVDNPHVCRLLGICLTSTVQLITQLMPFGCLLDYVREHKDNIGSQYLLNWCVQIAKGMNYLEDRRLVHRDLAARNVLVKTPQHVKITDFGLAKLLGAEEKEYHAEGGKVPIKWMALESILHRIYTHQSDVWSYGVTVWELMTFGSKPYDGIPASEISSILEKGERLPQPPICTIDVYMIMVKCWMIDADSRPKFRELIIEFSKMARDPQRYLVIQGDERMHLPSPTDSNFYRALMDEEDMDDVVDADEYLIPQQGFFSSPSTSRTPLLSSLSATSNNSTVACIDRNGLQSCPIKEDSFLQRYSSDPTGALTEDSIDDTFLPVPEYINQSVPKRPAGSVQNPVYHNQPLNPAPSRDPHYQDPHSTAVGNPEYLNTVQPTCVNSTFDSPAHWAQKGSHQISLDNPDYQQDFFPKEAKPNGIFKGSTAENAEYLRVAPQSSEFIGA
row,SMILES,Kd
1,C[C@@H](Nc1cc(F)cc(F)c1)c1cc(C(=O)N(C)C)cc2c(=O)cc(N3CCOCC3)oc12 [AZD-8186],> 30 µM (inactive)
2,Cn1cc(-c2ccc(F)c(C(F)(F)F)c2)nc1C1CCN(c2ncnc3[nH]ncc23)CC1 [LY-2584702],> 30 µM (inactive)
3,COc1cc(OC)c(/C=C/S(=O)(=O)Cc2ccc(OC)c(NCC(=O)O)c2)c(OC)c1 [RIGOSERTIB],> 30 µM (inactive)
4,C[C@@H]1CN(Cc2ccc(F)cc2)[C@@H](C)CN1C(=O)c1cc2c(C(=O)C(=O)N(C)C)cn(C)c2cc1Cl [TALMAPIMOD],> 30 µM (inactive)

# Target: T2, Isoleucine--tRNA ligase, mitochondrial (Homo sapiens, UniProt Q9NSE4)
# T2 sequence (Q9NSE4 whole entry): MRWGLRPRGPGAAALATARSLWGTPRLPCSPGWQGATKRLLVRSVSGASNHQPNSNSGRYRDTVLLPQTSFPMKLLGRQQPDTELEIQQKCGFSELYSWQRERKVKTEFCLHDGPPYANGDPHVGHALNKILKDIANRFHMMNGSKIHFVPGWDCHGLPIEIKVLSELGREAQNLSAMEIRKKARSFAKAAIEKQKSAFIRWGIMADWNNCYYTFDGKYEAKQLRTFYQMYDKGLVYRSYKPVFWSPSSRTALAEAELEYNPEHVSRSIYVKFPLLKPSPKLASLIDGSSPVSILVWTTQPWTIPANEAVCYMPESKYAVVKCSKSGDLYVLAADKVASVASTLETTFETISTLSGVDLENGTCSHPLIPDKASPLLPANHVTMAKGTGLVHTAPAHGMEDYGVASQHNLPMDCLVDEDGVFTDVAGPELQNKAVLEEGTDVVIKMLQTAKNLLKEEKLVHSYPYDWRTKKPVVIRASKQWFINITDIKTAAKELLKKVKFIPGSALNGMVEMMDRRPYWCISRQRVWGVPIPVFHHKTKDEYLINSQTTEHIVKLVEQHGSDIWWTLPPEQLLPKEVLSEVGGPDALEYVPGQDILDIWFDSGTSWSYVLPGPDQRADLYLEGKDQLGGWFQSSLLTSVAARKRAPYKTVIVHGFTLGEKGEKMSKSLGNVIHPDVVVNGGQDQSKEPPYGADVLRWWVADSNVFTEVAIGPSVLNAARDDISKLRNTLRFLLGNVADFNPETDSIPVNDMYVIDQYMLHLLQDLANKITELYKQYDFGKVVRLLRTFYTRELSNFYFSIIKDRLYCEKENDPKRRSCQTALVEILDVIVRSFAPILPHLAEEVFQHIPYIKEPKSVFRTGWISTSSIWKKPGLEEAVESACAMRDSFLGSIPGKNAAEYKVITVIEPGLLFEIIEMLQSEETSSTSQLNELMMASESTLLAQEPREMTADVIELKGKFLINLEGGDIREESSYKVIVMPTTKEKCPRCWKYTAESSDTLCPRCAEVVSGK
row,SMILES,Kd
1,Cc1nc(N)sc1-c1ccnc(Nc2ccc(N3CCOCC3)cc2)n1 [CYC-116],> 30 µM (inactive)

# Target: T3, Thyroid hormone receptor-associated protein 3 (Homo sapiens, UniProt Q9Y2W1)
# T3 sequence (Q9Y2W1 whole entry): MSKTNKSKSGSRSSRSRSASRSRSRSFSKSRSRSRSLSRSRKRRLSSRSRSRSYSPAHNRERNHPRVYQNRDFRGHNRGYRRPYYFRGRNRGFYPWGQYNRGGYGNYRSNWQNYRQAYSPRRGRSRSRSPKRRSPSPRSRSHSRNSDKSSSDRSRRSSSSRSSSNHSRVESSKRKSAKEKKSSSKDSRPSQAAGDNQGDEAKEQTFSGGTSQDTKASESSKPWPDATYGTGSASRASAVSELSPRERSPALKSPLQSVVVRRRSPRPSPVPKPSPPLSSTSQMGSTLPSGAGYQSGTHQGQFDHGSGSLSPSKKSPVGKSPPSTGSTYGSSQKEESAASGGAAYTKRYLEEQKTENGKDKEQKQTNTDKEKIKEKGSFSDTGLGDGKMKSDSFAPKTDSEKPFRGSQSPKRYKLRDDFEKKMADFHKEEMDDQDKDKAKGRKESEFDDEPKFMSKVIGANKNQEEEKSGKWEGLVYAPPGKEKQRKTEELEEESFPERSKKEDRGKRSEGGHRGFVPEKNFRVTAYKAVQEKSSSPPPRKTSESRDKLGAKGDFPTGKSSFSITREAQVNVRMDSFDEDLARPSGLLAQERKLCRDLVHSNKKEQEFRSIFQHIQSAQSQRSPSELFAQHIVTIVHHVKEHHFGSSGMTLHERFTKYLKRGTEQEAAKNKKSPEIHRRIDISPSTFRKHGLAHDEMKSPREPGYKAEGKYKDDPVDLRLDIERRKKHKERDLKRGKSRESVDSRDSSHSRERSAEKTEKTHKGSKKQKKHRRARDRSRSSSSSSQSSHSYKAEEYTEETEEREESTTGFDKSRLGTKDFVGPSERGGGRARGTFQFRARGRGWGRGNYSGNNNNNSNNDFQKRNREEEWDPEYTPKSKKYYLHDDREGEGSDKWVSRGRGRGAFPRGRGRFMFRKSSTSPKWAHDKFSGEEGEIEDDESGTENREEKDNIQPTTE
row,SMILES,Kd
1,Cc1nc(N)sc1-c1ccnc(Nc2ccc(N3CCOCC3)cc2)n1 [CYC-116],> 30 µM (inactive)
2,Cn1cc(-c2ccc(F)c(C(F)(F)F)c2)nc1C1CCN(c2ncnc3[nH]ncc23)CC1 [LY-2584702],> 30 µM (inactive)
3,COc1cc(OC)c(/C=C/S(=O)(=O)Cc2ccc(OC)c(NCC(=O)O)c2)c(OC)c1 [RIGOSERTIB],> 30 µM (inactive)
